Measurements from US11440923B2, “Substituted macrocyclic indole derivatives” (Bayer Aktiengesellschaft, priority 2017, dated 2022).
Counter-ions that a name gives are not always drawn. Like-named read-outs stand apart in the source and are kept apart here.

How the values were obtained:
BCL-2 = BCL-2 (Homo sapiens (Human), UniProt P10415); test: Protein-protein interaction assay BCL-2/Bad BH3 peptide (BCL-2 assay, TR-FRET); assay type: binding; settings: read-out: BCL-2 Assay IC50 (median)
Protocol: Assay 3 Protein-Protein Interaction Assay: BCL-2/Bad BH3 Peptide (BCL-2 Assay)
The dose-dependent inhibition by the compounds described in this invention of the interaction between BCL-2 and the BH3 domain of Bad (both human) was determined using a steady state binding competition assay with time-resolved fluorescence energy transfer (TR-FRET) readout. For that purpose BCL-2 (amino acids 1-211, C-terminal fused to a hexahistidine (6×His) tag (SEQ ID 5) and a synthetic Bad BH3-derived peptide of sequence Biotin-PEG2-PEG2-[…]-Nle-[…]-amide (SEQ ID 4) served as protein receptor and tracer ligand respectively. The recombinant BCL-2 protein (expressed in E. coli) was purchased from BPS Bioscience (San Diego, Calif., USA). The Bad BH3-derived peptide can be obtained from e.g. Biosyntan (Berlin, Germany).
In the assay 11 different concentrations of each compound (0.1 nM, 0.33 nM, 1.1 nM, 3.8 nM, 13 nM, 44 nM, 0.15 μM, 0.51 μM, 1.7 μM, 5.9 μM and 20 μM) were typically measured as duplicates in the same microtiter plate. For that, 100-fold concentrated DMSO solutions were prepared by serial dilutions (1:3.4) of a 2 mM stock solution in a clear, 384-well microtiter plate (Greiner Bio-One, Frickenhausen, Germany). From there, 50 nl were transferred in a dark test plate (Greiner Bio-One, Frickenhausen, Germany). The assay was initiated by addition of 2 μL of a 2,5-fold concentrated His-BCL-2 solution (usually for a 1 nM end concentration in 5 μL reaction volume) in aqueous assay buffer [50 mM Tris/HCl pH 7, 100 mM sodium chloride (NaCl), 50 mM potassium fluoride (KF), 0.005% Tween-20, 2 mM DTT, 0.1% bovine gamma globulin (BGG)] to the compounds in the assay plate. This was followed by a 10-minute incubation step at 22° C. for pre-equilibration of the putative complex between His-BCL-2 and the compounds. After that, 3 μL of a 1.67-fold concentrated solution (in assay buffer) consisting of Bad BH3-derived peptide (1 nM end concentration) and TR-FRET detection reagents [1.67 nM anti-His-Eu cryptate and 1.67 nM streptavidin-XL665 (both from Cisbio Bioassays, Codolet, France)], were added.
The mixture was incubated in the dark for one hour at 22° C. and then overnight at 4° C. The formation of BCL-2/Bad complexes was determined by measuring the resonance energy transfer of the anti-His-Eu-cryptate antibody to the streptavidin-XL665 present in the reaction. For that purpose, the fluorescence emission at 620 nm and 665 nm after excitation at 330-350 nm was measured in a TR-FRET measuring instrument, for instance a Rubystar or a Pherastar (both from BMG Lab Technologies, Offenburg, Germany) or a Viewlux (Perkin-Elmer). The ratio of the emission at 665 nm and at 622 nm was used as indicator of the amount of BCL-2/Bad complexes present.
The resulting data (ratio) were normalized, taking 0% inhibition as the mean value of control measurements (usually 32 data points) where all reagents were included. In this case 50 nl DMSO were used instead of compounds. […] IC50 values were determined by regression analysis based on a 4 parameter equation (minimum, maximum, IC50, Hill; Y=Max+(Min−Max)/(1+(X/IC50)^Hill) using the Screener Software (Genedata).

SUDHL5 cells [1] = test: Antiproliferation assay SUDHL5 (Assay 7); assay type: cell-based; settings: Homo sapiens, SU-DHL-5, 72 h, 72 h, CellTiter-Glo; read-out: Antiproli SUDHL5 IC50 (median)
Method in brief: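 Anti-proliferative effect was measured by CellTiter-Glo ATP luminescence after 72 h compound exposure at 37° C, following overnight plating. IC50s were derived using a parallel time-zero plate and DMSO-treated controls as reference points.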

SUDHL5 cells [2] = test: Induction of caspase-3/7 activity in SUDHL5 cells (Assay 4); assay type: cell-based
Method in brief: (§1)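 Read-out: Caspase-Glo 3/7 luminescence (1 h, 37 °C) after cells, plated overnight, were treated with compounds for 3 h at 37 °C. Signal corrected for cell-free medium background and expressed relative to DMSO control mean.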

SUDHL10 cells = test: Induction of caspase-3/7 activity in SUDHL10 cells (Assay 4); assay type: cell-based
Method in brief: as §1

[3] = Homo sapiens, SU-DHL-5, 3 h, caspase-3/7 induction, 3 h, read-out: Caspase SUDHL5 EC50 (median)
[4] = Homo sapiens, SU-DHL10, 3 h, caspase-3/7 induction, 3 h, read-out: Caspase SUDHL10 EC50 (median)
[5] = read-out: Caspase SUDHL10 EC50 (median), caspase-3/7 induction, 3 h
[6] = read-out: Caspase SUDHL5 EC50 (median), caspase-3/7 induction, 3 h

Sequence of BCL-2 (P10415 1-211): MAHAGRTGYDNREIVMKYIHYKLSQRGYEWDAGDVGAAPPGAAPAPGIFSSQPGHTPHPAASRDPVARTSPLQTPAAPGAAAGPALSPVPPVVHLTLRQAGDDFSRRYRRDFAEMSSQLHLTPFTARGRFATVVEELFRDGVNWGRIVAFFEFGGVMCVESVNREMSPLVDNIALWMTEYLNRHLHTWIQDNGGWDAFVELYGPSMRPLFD

| SMILES | IC50 (BCL-2) | EC50 (SUDHL10 cells; [5]) | EC50 (SUDHL5 cells [2]; [6]) | further results |
| --- | --- | --- | --- | --- |
| Cc1c2c(nn1C)C(C)OCCCCn1c(C(=O)O)c(CCCOc3cccc4ccccc34)c3cccc-2c31 (racemic) [Example 1, (rac)-2,3,15-trimethyl-7-[3-(naphthalen-1-yloxy)propyl]-2,10,11,12,13,15-hexahydropyrazolo[4′,3′:9,10][1,6]oxazacycloundecino[8,7,6-hi]indole-8-carboxylic Acid (Mixture of Stereoisomers)] | > 20 µM |  |  | IC50 (SUDHL5 cells [1]): 1.5 µM; EC50 (SUDHL5 cells [2]; [3]): 2.3 µM; EC50 (SUDHL10 cells; [4]): 5.9 µM |
| Cc1c2c(nn1C)C(CCN1CCOCC1)OCCCCn1c(C(=O)O)c(CCCOc3cccc4ccccc34)c3ccc(F)c-2c31 (racemic) [Example 7, (rac)-4-fluoro-2,3-dimethyl-15-[2-(morpholin-4-yl)ethyl]-7-[3-(naphthalen-1-yloxy)propyl]-2,10,11,12,13,15-hexahydropyrazolo[4′,3′:9,10][1,6]oxazacycloundecino[8,7,6-hi]indole-8-carboxylic Acid] | > 20 µM |  |  | IC50 (SUDHL5 cells [1]): 0.2 µM; EC50 (SUDHL5 cells [2]; [3]): 0.2 µM; EC50 (SUDHL10 cells; [4]): 0.36 µM |
| CCc1c2c(nn1C)C(CCN1CCN(C)CC1)OCCCCn1c(C(=O)O)c(CCCOc3cccc4cc(F)ccc34)c3ccc(Cl)c-2c31 (racemic) [Example 68, 4-chloro-3-ethyl-7-{3-[(6-fluoronaphthalen-1-yl)oxy]propyl}-2-methyl-(15-rac)-[2-(4-methylpiperazin-1-yl)ethyl]-2,10,11,12,13,15-hexahydropyrazolo[4′,3′:9,10][1,6]oxazacycloundecino[8,7,6-hi]indole-8-carboxylic Acid—N-ethylethanamine Salt (Mixture 1 of Stereoisomers)] | > 20 µM | 0.082 µM |  |  |
| CCc1c2c(nn1C)C(CCN1CCN(C)CC1)OCCCCn1c(C(=O)O)c(CCCOc3cccc4cc(F)ccc34)c3ccc(Cl)c-2c31 (racemic) [Example 71, (rac)-4-chloro-3-ethyl-7-{3-[(6-fluoronaphthalen-1-yl)oxy]propyl}-2-methyl-(15-rac)-[2-(4-methylpiperazin-1-yl)ethyl]-2,10,11,12,13,15-hexahydropyrazolo[4′,3′:9,10][1,6]oxazacycloundecino[8,7,6-hi]indole-8-carboxylic Acid—N-ethylethanamine Salt (Mixture 2 Od Stereoisomers)] | > 20 µM | 0.041 µM |  |  |
| Cc1c2c(nn1C)C(CCN1CCOCC1)OCCCCn1c(C(=O)O)c(CCCOc3cccc4cc(F)ccc34)c3ccc(Cl)c-2c31 (single isomer, unassigned; enantiomer 1) [Example 17, 4-chloro-7-{3-[(6-fluoronaphthalen-1-yl)oxy]propyl}-2,3-dimethyl-15-[2-(morpholin-4-yl)ethyl]-2,10,11,12,13,15-hexahydropyrazolo[4′,3′:9,10][1,6]oxazacycloundecino[8,7,6-hi]indole-8-carboxylic Acid—N-ethylethanamine (Enantiomer 1)] | > 20 µM |  |  | EC50 (SUDHL5 cells [2]; Homo sapiens, SU-DHL-5, 3 h, read-out: Caspase SUDHL5 EC50 (median), caspase-3/7 induction, 3 h): 0.0058 µM; EC50 (SUDHL10 cells; Homo sapiens, SU-DHL10, 3 h, read-out: Caspase SUDHL10 EC50 (median), caspase-3/7 induction, 3 h): 0.0097 µM |
| CCC1OCCCCn2c(C(=O)O)c(CCCOc3cccc4ccccc34)c3ccc(Cl)c(c32)-c2c1nn(C)c2C (single isomer, unassigned; enantiomer 1) [Example 29, (+)-4-chloro-15-ethyl-2,3-dimethyl-7-{3-[(naphthalen-1-yl)oxy]propyl}-2,10,11,12,13,15-hexahydropyrazolo[4′,3′:9,10][1,6]oxazacycloundecino[8,7,6-hi]indole-8-carboxylic Acid—N-ethylethanamine Salt (Enantiomer 1)] | > 20 µM | 3.7 µM | 0.84 µM |  |
| Cc1c2c(nn1C)C(CCN1CCOCC1)OCCCCn1c(C(=O)O)c(CCCOc3cccc4cc(F)ccc34)c3ccc(Cl)c-2c31 (single isomer, unassigned; enantiomer 2) [Example 18, 4-chloro-7-{3-[(6-fluoronaphthalen-1-yl)oxy]propyl}-2,3-dimethyl-15-[2-(morpholin-4-yl)ethyl]-2,10,11,12,13,15-hexahydropyrazolo[4′,3′:9,10][1,6]oxazacycloundecino[8,7,6-hi]indole-8-carboxylic Acid (Enantiomer 2)] | > 20 µM |  |  | EC50 (SUDHL5 cells [2]; [3]): 0.53 µM; EC50 (SUDHL10 cells; [4]): 2.3 µM |
| CCC1OCCCCn2c(C(=O)O)c(CCCOc3cccc4ccccc34)c3ccc(Cl)c(c32)-c2c1nn(C)c2C (single isomer, unassigned; enantiomer 2) [Example 30, (−)-4-chloro-15-ethyl-2,3-dimethyl-7-{3-[(naphthalen-1-yl)oxy]propyl}-2,10,11,12,13,15-hexahydropyrazolo[4′,3′:9,10][1,6]oxazacycloundecino[8,7,6-hi]indole-8-carboxylic Acid—N-ethylethanamine Salt (Enantiomer 2)] | > 20 µM | > 33 µM | > 33 µM |  |
| Cc1c2c(nn1C)C(C1CC1)OCCCCn1c(C(=O)O)c(CCCOc3cccc4ccccc34)c3ccc(Cl)c-2c31 (single isomer, unassigned; enantiomer 2) [Example 36, (−)-4-chloro-15-cyclopropyl-2,3-dimethyl-7-{3-[(naphthalen-1-yl)oxy]propyl}-2,10,11,12,13,15-hexahydropyrazolo[4′,3′:9,10][1,6]oxazacycloundecino[8,7,6-hi]indole-8-carboxylic Acid N-ethylethanamine Salt (Enantiomer 2)] | 14.6 µM | 27 µM | > 33 µM |  |
| CCc1c2c(nn1C)C(CCOC)OCCCCn1c(C(=O)O)c(CCCOc3cccc4cc(F)ccc34)c3ccc(Cl)c-2c31 (single isomer, unassigned; enantiomer 2) [Example 43, (−)-4-chloro-3-ethyl-7-{3-[(6-fluoronaphthalen-1-yl)oxy]propyl}-15-(2-methoxyethyl)-2-methyl-2,10,11,12,13,15-hexahydropyrazolo[4′,3′:9,10][1,6]oxazacycloundecino[8,7,6-hi]indole-8-carboxylic Acid—N-ethylethanamine Salt (Enantiomer 2)] | 19.3 µM | 24 µM | 20 µM |  |
| CCc1c2c(nn1C)C(CCO)OCCCCn1c(C(=O)O)c(CCCOc3cccc4cc(F)ccc34)c3ccc(Cl)c-2c31 (single isomer, unassigned; enantiomer 2) [Example 46, (−)-4-chloro-3-ethyl-7-{3-[(6-fluoronaphthalen-1-yl)oxy]propyl}-15-(2-hydroxyethyl)-2-methyl-2,10,11,12,13,15-hexahydropyrazolo[4′,3′:9,10][1,6]oxazacycloundecino[8,7,6-hi]indole-8-carboxylic Acid (Enantiomer 2)] | > 20 µM |  |  | EC50 (SUDHL5 cells [2]; caspase-3/7 induction, 3 h, read-out: Caspase SUDHL5 EC50 (median)): 4.9 µM; EC50 (SUDHL10 cells; caspase-3/7 induction, 3 h, read-out: Caspase SUDHL10 EC50 (median)): 4 µM |
